Earlier results, collected in the CATMoS acute toxicity set (Mansouri et al. 2021).
Where “and” joins values, the source holds several entries; their conditions need not be identical. Equal values may be shown once.

Experiment: rat acute oral toxicity
Settings: in vivo

SMILES	LD50
CNC(=O)Oc1ccccc1OC(CCl)OC (stereo not drawn)	35.4 mg/kg
C=COCCO	3910 mg/kg
CCN(C(C)=O)c1c(I)cc(I)c(OCCOC(C)C(=O)O)c1I (stereo not drawn)	1600 mg/kg
CC1=C(C)C(=O)C(C(CCCCCC(=O)O)c2ccccc2)=C(C)C1=O (racemic)	3750 mg/kg
Cc1ccc2c(-c3cccc(O)c3)nc(=O)n(C(C)C)c2c1	1600 mg/kg
NC[C@H]1CC[C@H](C(=O)Oc2ccc(CCC(=O)O)cc2)CC1	1500 mg/kg
CCOC(C1=NCC(C)(C)CN1)c1cccc2ccccc12 (stereo not drawn)	55 mg/kg
COC(F)(F)C(F)Cl (stereo not drawn)	5130 mg/kg
CCC(c1ccccc1)c1noc(CCN(CC)CC)n1 (stereo not drawn)	1400 mg/kg
C=C(C)Cn1c(N)cc(=O)n(C)c1=O	1560 mg/kg
CC(C)=CC(=O)O[C@H]1CC[C@]2(C=O)[C@H]3CC[C@]4(C)[C@@H](c5ccc(=O)oc5)CC[C@]4(O)[C@@H]3CC[C@]2(O)C1	1.74 mg/kg
Cc1ccc(Cl)cc1N	464 mg/kg
CCS(=O)(=O)Oc1ccc2c(c1)C(C)(C)CO2	2030 mg/kg
c1coc(OCC2CO2)c1 (stereo not drawn)	1100 mg/kg
CCOP(=S)(OCC)Oc1ccc([N+](=O)[O-])cc1Cl	10 mg/kg
CCC(CO)NC(=O)C1C=C2c3cccc4[nH]cc(c34)CC2N(C)C1 (stereo not drawn)	93 mg/kg
CCCCN(N=O)C(=O)OCC	900 mg/kg
C1CCc2nnnn2CC1	140 mg/kg
COc1c(C(=O)CCC(=O)O)ccc2c(C)c(C)oc12	3000 mg/kg
N#CCCNc1ccccc1	4700 mg/kg
C=CCOc1ccccc1C(=O)N(CC)CC	325 mg/kg
CC(=O)c1ccc(O)c(C(N)=O)c1	1700 mg/kg
CCCCCCOC(C)=O	42000 mg/kg
C=CCN(C1=NCCN1)c1c(Cl)cccc1Cl	500 mg/kg and 233 mg/kg
N=C(N)SCc1ccc([N+](=O)[O-])cc1	300 mg/kg

SMILES	LD50
O=C(O)CN(CCN(CC(=O)O)CC(=O)O)CCN(CC(=O)O)CC(=O)O	4550 mg/kg
O=C(O)Cc1ccc(-c2ccccc2)cc1	164 mg/kg
CC1(C)C(C=NOCc2ccco2)C1C(=O)OC(C#N)c1cccc(Oc2ccccc2)c1 (stereo not drawn)	91 mg/kg
Cn1c(=O)c2c(ncn2CCOC(=O)C(C)(C)Oc2ccc(Cl)cc2)n(C)c1=O	17000 mg/kg
CNC(=O)ON=C1SC(=NC(C)(C)C)SC1(C)C	31.5 mg/kg
CC(=O)Oc1c(C(C)(C)C)cc([N+](=O)[O-])c(C)c1[N+](=O)[O-]	42 mg/kg
N#Cc1ccc(Cl)c([N+](=O)[O-])c1	2050 mg/kg
COC(=O)C1=C(C)NC(C)=C(C(=O)O[C@@H]2CCCN(Cc3ccccc3)C2)[C@@H]1c1cccc([N+](=O)[O-])c1 (racemic)	87.6 mg/kg
CC(C)=CC1C(C(=O)OC(C#N)c2cccc(Oc3ccccc3)c2)C1(C)C (stereo not drawn)	318 mg/kg
COC(=O)c1cc(C(=O)OC)cc([N+](=O)[O-])c1	10000 mg/kg
CCCCCCCCSC(=O)Oc1cc(Cl)nnc1-c1ccccc1	1970 mg/kg
C[N+](C)(C)Cc1ccccc1	25 mg/kg
CCC(=O)OCCc1ccccc1	4000 mg/kg
CCCOCCOC(=O)C1=C(C)NC(C)=C(C(=O)OCCOCCC)C1c1cccc([N+](=O)[O-])c1	1470 mg/kg
CCOP(=O)(OC=C(Cl)Cl)OCCCl (stereo not drawn)	5 mg/kg
COC(C)=NC#N	432 mg/kg
c1nc(NC2CC2)c2ncn(CC3CC3)c2n1	160 mg/kg
CC(Cc1ccc(O)cc1)NCC(O)c1cc(O)cc(O)c1 (stereo not drawn)	1600 mg/kg
C#CCCCC#C	2300 mg/kg
CCC(CO)(CO)CO	14100 mg/kg
Cc1cccc(C(=O)Cl)c1	3440 mg/kg
C#CCOC(=O)CCCCC(=O)OCC#C	200 mg/kg
CC(C(=O)O)c1ccc(-c2ccccc2)c(F)c1 (stereo not drawn)	117 mg/kg
O=C1CN2CCOC2(c2ccccc2F)c2cc(Br)ccc2N1 (stereo not drawn)	2860 mg/kg
CN1CCC23c4c5ccc(O)c4OC2C(N=[N+]=[N-])CCC3(O)C1C5 (stereo not drawn)	190 mg/kg

SMILES	LD50
Fc1c(F)c(F)c2[nH]c(C(F)(F)F)nc2c1F	3.33 mg/kg
CCCS(=O)(=O)c1c(Cl)cnc(Cl)c1Cl	1100 mg/kg
COP(=S)(OC)SC1CCSc2ccc(Cl)cc21 (stereo not drawn)	200 mg/kg
O=C(O)CNC(=O)c1ccc(Cl)cc1	2230 mg/kg
COCCCOCC(C)OCCCOC(=O)c1ccccc1 (stereo not drawn)	5480 mg/kg
CC1(C)NC(=O)NC1=O	7800 mg/kg
O=C1C(=O)c2ncccc2-c2cccnc21	5 mg/kg
Cc1cc(C(=O)NNC(C)Cc2ccccc2)no1 (stereo not drawn)	89 mg/kg
CC(=O)OCC(COC(C)=O)OC(C)=O	3000 mg/kg
CCOP(=S)(OCC)OP(=S)(OCC)OCC	5 mg/kg
CCOC(=O)CCC1(CCC(=O)OCC)c2ccccc2-c2ccccc21	6170 mg/kg
COc1ccc([N+](=O)[O-])cc1CNCCCl	28 mg/kg
CC(C(=O)O)c1ccc2c(c1)OCc1cc(Cl)ccc1C2=O (stereo not drawn)	12 mg/kg
Oc1ccc(C(c2ccc(O)cc2)(C(F)(F)F)C(F)(F)F)cc1	3400 mg/kg
CCCCCCCCCCOC(=O)C[N+](C)(C)CCSCC[N+](C)(C)CC(=O)OCCCCCCCCCC	2660 mg/kg
CN(C)C(=O)Nc1ccc(Cl)cc1	1050 mg/kg
CC1C(=NOC(=O)N(C)SC(Cl)(Cl)Cl)SCC(=O)N1C (stereo not drawn)	3.54 mg/kg
CCOP(=S)(OCC)SCCl	7 mg/kg
CCOC(=O)[C@H](CCc1ccccc1)N[C@@H](C)C(=O)N1C(=O)N(C)C[C@H]1C(=O)O	3540 mg/kg
CN(N=O)c1cccnc1	10 mg/kg
Cc1nc(C)c(C)nc1C	1910 mg/kg
CCOC1CCC=CO1 (stereo not drawn)	6160 mg/kg
O=C(Cl)c1cccc(C(=O)Cl)c1	2200 mg/kg
Cc1ccc(S(=O)(=O)NC(=O)NN2CC3CCCC3C2)cc1 (stereo not drawn)	3000 mg/kg
CCCN=C(C(OCC)c1ccccc1)N1CCCCCC1 (stereo not drawn)	220 mg/kg

SMILES	LD50
CC(C)CCCC(C)N (stereo not drawn)	538 mg/kg
O=C(CF)Nc1ccc(-c2ccccc2)cc1	10 mg/kg
COc1cc(C(=O)OC2CCC(N3CCCCC3)CC2)cc(OC)c1OC (stereo not drawn)	650 mg/kg
COc1c(F)c(F)c2[nH]c(C(F)(F)F)nc2c1F	2.89 mg/kg
COP(=O)(OC)OC=C(Br)Br	253 mg/kg
N=C(N)NN=C1C=CC(=NNC(N)=S)C=C1	750 mg/kg
COc1ccc2c(c1)CCCC2=O	300 mg/kg
CCN(CC)CC(=O)c1c2c(cc3c1CCC3)CCC2	2220 mg/kg
CCN(CC)CCOc1ccc(C2=C(c3ccccc3)Cc3cc(OC)ccc32)cc1	547 mg/kg
NNCCc1ccccc1	210 mg/kg
CCCCc1ccc(O)cc1O	500 mg/kg
O=S(=O)(C(Cl)CCl)C(Cl)CCl (stereo not drawn)	250 mg/kg
O=C1NCC2(CCN(CCc3ccccc3)CC2)O1	980 mg/kg and 437 mg/kg
CNC(=O)c1ccc(Cl)c(S(=O)(=O)NC)c1	1400 mg/kg
CSP(=O)(SC)SC	30 mg/kg
CCOC1CC2CN3CCc4c([nH]c5cc(OC)ccc45)C3CC2C(C(=O)OC)C1OC (stereo not drawn)	187 mg/kg
CCN(Cc1ccccc1)N=O	250 mg/kg
CCC(C)CC(CC)Nc1ccc(NC(CC)CC(C)CC)cc1 (stereo not drawn)	2400 mg/kg
CCc1c(C)nc2cccc(C)n2c1=O	690 mg/kg
CCCSP(=O)(OCC)Oc1c(Cl)cc(Cl)cc1Cl (stereo not drawn)	151 mg/kg
CC(=O)NC(=O)c1ccccc1O	1800 mg/kg
CCN(CCO)c1ccccc1	1640 mg/kg
CC1CC2CN(C)CC(C2O)C1N1CCCC1 (stereo not drawn)	500 mg/kg
FC(F)(F)c1nc2c(I)cc(Cl)cc2[nH]1	24 mg/kg
Nc1ccc(N=Nc2c(S(=O)(=O)O)cc3cc(S(=O)(=O)O)c(N=Nc4ccccc4)c(O)c3c2N)cc1	3000 mg/kg

SMILES	LD50
CCCCCCCCCCCC(=O)OCC(O)CO (stereo not drawn)	52900 mg/kg
O=C(O)Cc1cc(O)ccc1Nc1c(Cl)cccc1Cl	1430 mg/kg
CNC(=O)Oc1ccccc1CCCSC	220 mg/kg
Brc1ccc2[nH]cc(CC3CCNCC3)c2c1	25 mg/kg
N#CCC(N)=O	3200 mg/kg
C=CC[N+]1(CCC(C)CCCC(C)C)CCCCC1 (stereo not drawn)	360 mg/kg
CC(COc1ccc(Cl)cc1Cl)C(=O)O (stereo not drawn)	800 mg/kg
COc1ccc2c(c1)N(CCC1CCCCN1C)c1ccccc1S2 (stereo not drawn)	1130 mg/kg
CC(=O)N[C@@H](Cc1c[nH]c2ccccc12)C(=O)O	15000 mg/kg
CC=C(CC)C(=O)NC(N)=O	2500 mg/kg
CCCCNC	420 mg/kg
ClCCOCCC(OCCCl)OCCCl	710 mg/kg
CCCC(=NOCC)C1=C(O)CC(C2CCCSC2)CC1=O (stereo not drawn)	3940 mg/kg
NC(CO)(CO)CO	5900 mg/kg
CCCNC(=O)OCC(O)C1COc2ccccc2O1 (stereo not drawn)	1500 mg/kg
O=[N+]([O-])C(CO)(CO)CO	1900 mg/kg
CCOP(=S)(OCC)SCn1nc(Cl)c(Cl)cc1=O	1880 mg/kg
C[N+]12CCC(c3ccccc3)(CC1)C(=O)C2	1480 mg/kg
COC(=NC#N)OC	1500 mg/kg
CCCCCCCCNC(C)C(O)c1ccc(SC(C)C)cc1 (stereo not drawn)	1740 mg/kg
CC(C)NCC(O)c1cc(O)cc(O)c1 (stereo not drawn)	3370 mg/kg
O=C(O)CN(CCO)CCN(CC(=O)O)CC(=O)O	10000 mg/kg
CCOC(=O)C(Br)CBr (stereo not drawn)	240 mg/kg
CN(C)CCOc1ccccc1Cc1ccccc1	1470 mg/kg and 1400 mg/kg
COP(=O)(OC)O/C(=C\Cl)c1ccc(Cl)cc1Cl	97.5 mg/kg

SMILES	LD50
FC(F)(F)c1ccccc1Br	2720 mg/kg
Cc1cnccc1N	446 mg/kg
CC(C)CNC(=S)NCC(C)C	800 mg/kg
C=CCNC(=S)Nc1ccccc1	750 mg/kg
CCCC1C(=O)N(c2ccccc2)N(c2ccccc2)C1=O	529 mg/kg
Cl[C@H]1[C@H](Cl)[C@@H](Cl)[C@H](Cl)[C@@H](Cl)[C@@H]1Cl (racemic)	6000 mg/kg
CCCOc1ccc(Cl)cc1C(CN(C)C)C(C)CC (stereo not drawn)	561 mg/kg
CCCCNC(=O)OCC(O)C1COc2ccccc2O1 (stereo not drawn)	1500 mg/kg
C[N+]1(C)CCC(=C(c2ccccc2)c2ccccc2)CC1	1110 mg/kg
CCCCN1C(=O)c2cccc([N+](=O)[O-])c2C1=O	2030 mg/kg
O=C(O)Cn1c(=O)n(Cc2ccc(Br)cc2F)c(=O)c2ccc(Cl)cc21	4250 mg/kg
O=C1OC(c2ccc(O)cc2)(c2ccc(O)cc2)c2c(I)c(I)c(I)c(I)c21	2800 mg/kg
CNC(=O)Oc1ccc(C)c(N(C)C)c1	46 mg/kg
FC(F)(F)c1cccc(C2CNCCO2)c1 (stereo not drawn)	271 mg/kg
CON(C(=O)CSP(=S)(OC)OC)C(C)C	260 mg/kg
CSCc1cnc(C)c(O)c1CO	4300 mg/kg
ClC(Cl)(Cl)c1ccc(C(Cl)(Cl)Cl)cc1	3200 mg/kg
CSC(C)(C)C=NO	742 mg/kg
CCSC(C)C1(CC)C(=O)NC(=S)NC1=O (stereo not drawn)	772 mg/kg
C=CC(C)(O)CCC=C(C)C (stereo not drawn)	2790 mg/kg
CC(C)=C1CC[C@@H](C)CC1=O	470 mg/kg
O=C(Nc1ccccc1)Nc1cnns1	5350 mg/kg
CC=CC=CC(=O)NO	2460 mg/kg
